# Source: patent US5811083A, “Tocopherol derivatives for use in cosmetic compositions” (Estee Lauder, Inc., priority 1996, dated 1998)
# Entries after “also recorded” stand apart in the source; their conditions may differ.
# How the values were obtained:
# [1] = test system: UV-induced lipid peroxidation; experiment: in vitro liposomal/UV assay, inhibition of UV-induced lipid peroxidation; assay type: biochemical
# Method: The antioxidant potential and stability of equimolar concentrations of tocopherol-cysteamine, cysteamine, and a α-tocopherol were compared using an in vitro liposomal/UV assay. This assay provides an effective means of measuring an antioxidant's potential to inhibit UV-induced lipid peroxidation which may correlate with the antioxidant's inhibition of free radical generation in the skin. […] The antioxidant contribution of cysteamine to the derivative was tested by measuring cysteamine alone and determined to be 20.1%.
# [2] = test system: UV-induced lipid peroxidation; experiment: UV/liposomal assay of anti-oxidant activity after storage for five years at ambient temperatures; assay type: biochemical; details: for Inhibition: average of two separate assays performed in duplicate; for retention of antioxidant activity on storage: dry powder form, ambient temperatures, five years
# Method: The tocopherol sample used in this assay was freshly prepared and stored under argon gas in a sealed amber ampoule at -20° C. […] In contrast, the tocopherol-cysteamine samples used in the assay were stored in dry powder form at ambient temperatures for more than five years. […] In particular, several materials, including two batches of tocopherol-cysteamine, were tested for anti-oxidant activity using a UV/liposomal assay. The results reported below represent the average of two separate assays performed in duplicate.
# [3] = test system: lipid peroxidation, human skin; experiment: clinical study, lipid peroxides in ethanol washes of ventral forearms after topical cream; assay type: in vivo; details: for average level of peroxides, 500 mJ/cm^2 + Ao: UVB 500 mJ/cm^2; for average level of peroxides, 0 + Ao: not irradiated
# Method: A clinical study was undertaken in order to measure the effectiveness of topically applied compositions containing tocopherol-cysteamine on human skin. Protection against lipid peroxidation was used as a biological marker in a study of twenty subjects.
# A cream containing 0.10% tocopherol-cysteamine and other antioxidants was prepared using the batch formulation of Table III.
# The cream containing 0.10% tocopherol-cysteamine was applied by the panelists to their left ventral forearms twice daily. The same cream formulation without any antioxidants was used as the control and applied to the right ventral forearms. At 0, 4, 8 and 12 weeks, ethanol washes were taken and samples aliquoted for endogenous levels of lipid peroxides, susceptibility to lipid peroxidation by UVB irradiation at 500 mJ/cm^2, and lipid analysis.
# [4] = ambient temperatures, over a period of one week; cited from earlier work
# [5] = cited from earlier work
# [6] = week 0, cream 0.10% tocopherol-cysteamine and other antioxidants
# [7] = week 4, cream 0.10%, twice daily
# [8] = week 8, cream 0.10%, twice daily
# [9] = week 12, cream 0.10%, twice daily
smiles,measurement,setting,value
Cc1c(C)c2c(c(C)c1O)CCC(C)(C(=O)NCCS)O2 (stereo not drawn) [Tocopherol-cysteamine],% Inhibition (UV-induced lipid peroxidation),[1]; 0.18 mM,67.3%
same,antioxidant activity vs α-tocopherol and cysteamine assays combined,"[1]; equimolar, 0.18 mM",greater than that activity observed in both the α-tocopherol and cysteamine assays combined
same,"average inhibition of UV-induced lipid peroxidation, previous experiments",[1]; triplicate samplings assayed in duplicate,65.2% (+/-3.61)
same,activity of 5 year-old vs new batch,"[2]; 0.010%, 5 year-old vs new batch",very similar
same,Inhibition,"[2]; 5 year-old, 0.010%",57.3%
same,retention of antioxidant activity on storage,[2],did not lose significant antioxidant activity over this five year period
same,retention of antioxidant activity on storage,[2]; listed as tocopheryl-cysteamine,does not lose any significant anti-oxidant activity
same,Inhibition,"[2]; new batch, 0.010%",65.6%
same,stability compared with α-tocopherol,[2]; storage at ambient temperatures,considerably more stable
same,"amount of endogenous peroxides, week 8 vs week 0","[3]; 8 weeks vs 0 time point, p value less than 0.1",significant decrease
same,"amount of peroxides generated by UVB, week 8 vs week 0","[3]; 8 weeks vs 0 time point, p<0.01, t test",significant decrease
same,"average values vs untreated samples, 12 weeks","[3]; 12 week time point, control and irradiated preparations",lower than the untreated samples
same,peroxide levels after irradiation over the course of treatment,"[3]; irradiated, treated arms",decreased over the course of treatment
same,average endogenous peroxide levels over time,[3]; treated but not irradiated,decreased over time
same,"average level of peroxides, 500 mJ/cm^2 + Ao",[3]; [6],17.69
same,"average level of peroxides, 0 + Ao",[3]; [6],9.10
same,"average level of peroxides, 500 mJ/cm^2 + Ao",[3]; [7],12.95
same,"average level of peroxides, 0 + Ao",[3]; [7],8.19
same,"average level of peroxides, 500 mJ/cm^2 + Ao",[3]; [8],10.33
same,"average level of peroxides, 0 + Ao",[3]; [8],6.56
same,"average level of peroxides, 500 mJ/cm^2 + Ao",[3]; [9],26.67
same,"average level of peroxides, 0 + Ao",[3]; [9],21.19
"Cc1c(C)c2c(c(C)c1O)CCC(C)(CCCC(C)CCCC(C)CCCC(C)C)O2 (stereo not drawn) [Tocopherol, α-Tocopherol]",loss of antioxidant potency on storage,[4],"lose its antioxidant potency, and in fact become a pro-oxidant; also recorded: gradually lose antioxidant potency and become a prooxidant"
same,% Inhibition (UV-induced lipid peroxidation),[1]; 0.18 mM,28.9%
"NCCS [Cysteamine, cysteamine, reference compound]",% Inhibition (UV-induced lipid peroxidation),[1]; 0.18 mM,20.1%
"Cc1c(C)c2c(c(C)c1O)CCC(C)(C(=O)O)O2 (stereo not drawn) [Trolox-C, 6-hydroxy-2,5,7,8-tetra-methylchroman-2-carboxylic acid]","antioxidant activity vs α-tocopherol and other commercial food antioxidants (butylated hydroxytoluene, butylated hydroxyanisole)",[5]; Schaal thin layer oven and AOM tests,greater antioxidant activity than α-tocopherol and other commercial food antioxidants
same,antioxidant effectiveness in vegetable oils and animal fats,[5]; vegetable oils and animal fats,extremely effective antioxidant
